Reference: ChEMBL document CHEMBL4257528, “Molecular insights into the interaction of Hsp90 with allosteric inhibitors targeting the C-terminal domain” (Medchemcomm, 2018)
The source made the active and inactive calls. The rule behind the calls is not given here.

Columns and labels:
[1] = biological target: Heat shock protein HSP 90-alpha (Homo sapiens) (UniProt P07900); assay: Binding affinity to N-terminal His6-tagged HSP90alpha CTD (unknown origin) expressed in Escherichia coli BL21(DE3) at compound to protein ratio of 164 by STD-NMR method
[2] = biological target: Heat shock protein HSP 90-alpha (Homo sapiens) (UniProt P07900); assay: Binding affinity to 1H/13C-Ile HSP90alpha CTD (unknown origin) at 1.4 mM by Methyl-TROSY […] spectrum analysis
[3] = Solubility of the compound in buffer solution; format: physicochemical
[4] = biological target: Heat shock protein HSP 90-alpha (Homo sapiens) (UniProt P07900); assay: Binding affinity to 1H/13C-Ile HSP90alpha CTD (unknown origin) at 0.9 mM by Methyl-TROSY […] spectrum analysis
[5] = biological target: Heat shock protein HSP 90-alpha (Homo sapiens) (UniProt P07900); assay: Binding affinity to 1H/13C-Ile HSP90alpha CTD (unknown origin) at 2.5 mM by Methyl-TROSY […] spectrum analysis

SMILES | Activity [1] | Activity [2] | solubility [3] | Activity [4] | Activity [5]
CO[C@@H]1[C@@H](O)[C@@H](O)[C@H](Oc2ccc(CCNC(C)=O)c(-c3cccc(F)c3)c2)OC1(C)C [CEMDOMESPIB] | Active | Active | Soluble | – | –
CO[C@@H]1[C@@H](O)[C@@H](O)[C@H](Oc2ccc3cc(NC(C)=O)c(=O)oc3c2C)OC1(C)C | Active | – | Soluble | Active | –
Nc1ncnc2c1ncn2[C@@H]1O[C@H](COP(=O)(O)OP(=O)(O)NP(=O)(O)O)[C@@H](O)[C@H]1O | – | – | – | – | Active
